Source: ChEMBL document CHEMBL3351638, “Discovery of 6-[5-(4-fluorophenyl)-3-methyl-pyrazol-4-yl]-benzoxazin-3-one derivatives as novel selective nonsteroidal mineralocorticoid receptor antagonists” (Bioorg Med Chem, 2014)

Tests used:
[1] = target: T1, Progesterone receptor (Homo sapiens, UniProt P06401); test: Displacement of [[3H]-Progesterone from progesterone receptor (unknown origin) expressed in 293 cells after 16 hrs by scintillation counting; format: cell-based
T1 sequence (P06401 whole entry): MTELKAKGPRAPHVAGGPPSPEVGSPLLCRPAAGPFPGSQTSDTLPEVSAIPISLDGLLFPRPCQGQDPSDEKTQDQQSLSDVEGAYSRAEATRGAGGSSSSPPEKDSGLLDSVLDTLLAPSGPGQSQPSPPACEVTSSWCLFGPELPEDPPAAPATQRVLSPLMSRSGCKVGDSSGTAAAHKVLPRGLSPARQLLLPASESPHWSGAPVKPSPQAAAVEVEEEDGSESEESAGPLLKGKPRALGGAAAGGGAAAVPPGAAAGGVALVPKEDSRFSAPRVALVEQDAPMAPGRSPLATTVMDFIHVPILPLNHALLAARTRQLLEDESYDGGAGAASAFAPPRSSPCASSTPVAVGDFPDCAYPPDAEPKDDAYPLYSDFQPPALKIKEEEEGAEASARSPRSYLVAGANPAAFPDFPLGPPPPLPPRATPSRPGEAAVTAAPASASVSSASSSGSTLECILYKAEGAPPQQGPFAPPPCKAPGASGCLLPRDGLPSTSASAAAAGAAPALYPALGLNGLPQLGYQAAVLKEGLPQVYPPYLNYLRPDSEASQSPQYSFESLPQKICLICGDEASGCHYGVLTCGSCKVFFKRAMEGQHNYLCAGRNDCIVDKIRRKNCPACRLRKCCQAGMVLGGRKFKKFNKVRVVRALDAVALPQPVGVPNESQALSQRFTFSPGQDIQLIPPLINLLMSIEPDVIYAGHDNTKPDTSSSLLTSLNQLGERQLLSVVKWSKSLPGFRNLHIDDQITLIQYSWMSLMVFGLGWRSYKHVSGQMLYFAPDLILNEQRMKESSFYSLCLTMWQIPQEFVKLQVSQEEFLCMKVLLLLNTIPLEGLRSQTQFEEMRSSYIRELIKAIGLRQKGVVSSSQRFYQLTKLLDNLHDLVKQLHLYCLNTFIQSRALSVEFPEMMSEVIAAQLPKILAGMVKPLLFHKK

[2] = target: T2, Androgen receptor (Homo sapiens, UniProt P10275); test: biochemical
T2 sequence (P10275 whole entry): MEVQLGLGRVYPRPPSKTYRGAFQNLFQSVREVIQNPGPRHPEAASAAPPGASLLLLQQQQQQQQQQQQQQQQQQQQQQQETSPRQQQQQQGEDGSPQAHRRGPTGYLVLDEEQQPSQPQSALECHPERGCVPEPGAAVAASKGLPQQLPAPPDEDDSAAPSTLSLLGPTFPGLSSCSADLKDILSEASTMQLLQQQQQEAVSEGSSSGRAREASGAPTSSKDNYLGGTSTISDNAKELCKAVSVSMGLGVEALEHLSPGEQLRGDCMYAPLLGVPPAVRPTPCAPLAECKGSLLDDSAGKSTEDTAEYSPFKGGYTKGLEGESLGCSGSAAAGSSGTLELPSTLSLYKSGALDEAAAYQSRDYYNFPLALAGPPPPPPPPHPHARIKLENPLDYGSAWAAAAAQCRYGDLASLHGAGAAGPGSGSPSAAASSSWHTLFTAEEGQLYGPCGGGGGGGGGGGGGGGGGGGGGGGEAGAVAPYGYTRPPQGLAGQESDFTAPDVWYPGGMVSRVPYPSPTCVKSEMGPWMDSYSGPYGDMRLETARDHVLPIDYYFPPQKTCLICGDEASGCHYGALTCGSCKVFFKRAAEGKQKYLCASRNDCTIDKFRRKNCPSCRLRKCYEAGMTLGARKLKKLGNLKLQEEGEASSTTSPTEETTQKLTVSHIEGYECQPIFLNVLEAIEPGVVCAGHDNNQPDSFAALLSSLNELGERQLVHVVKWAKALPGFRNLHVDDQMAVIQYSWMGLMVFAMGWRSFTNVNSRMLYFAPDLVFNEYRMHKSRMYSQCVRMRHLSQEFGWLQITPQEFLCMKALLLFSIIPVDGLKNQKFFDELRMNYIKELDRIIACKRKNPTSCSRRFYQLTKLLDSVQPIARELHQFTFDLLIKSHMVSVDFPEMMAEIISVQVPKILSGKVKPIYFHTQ
Description: Displacement of [3H]testosterone from androgen receptor (unknown origin) expressed in 293 cells after 16 hrs by scintillation counting

[3] = target: T3, Mineralocorticoid receptor (Homo sapiens, UniProt P08235); test: biochemical
T3 sequence (P08235 whole entry): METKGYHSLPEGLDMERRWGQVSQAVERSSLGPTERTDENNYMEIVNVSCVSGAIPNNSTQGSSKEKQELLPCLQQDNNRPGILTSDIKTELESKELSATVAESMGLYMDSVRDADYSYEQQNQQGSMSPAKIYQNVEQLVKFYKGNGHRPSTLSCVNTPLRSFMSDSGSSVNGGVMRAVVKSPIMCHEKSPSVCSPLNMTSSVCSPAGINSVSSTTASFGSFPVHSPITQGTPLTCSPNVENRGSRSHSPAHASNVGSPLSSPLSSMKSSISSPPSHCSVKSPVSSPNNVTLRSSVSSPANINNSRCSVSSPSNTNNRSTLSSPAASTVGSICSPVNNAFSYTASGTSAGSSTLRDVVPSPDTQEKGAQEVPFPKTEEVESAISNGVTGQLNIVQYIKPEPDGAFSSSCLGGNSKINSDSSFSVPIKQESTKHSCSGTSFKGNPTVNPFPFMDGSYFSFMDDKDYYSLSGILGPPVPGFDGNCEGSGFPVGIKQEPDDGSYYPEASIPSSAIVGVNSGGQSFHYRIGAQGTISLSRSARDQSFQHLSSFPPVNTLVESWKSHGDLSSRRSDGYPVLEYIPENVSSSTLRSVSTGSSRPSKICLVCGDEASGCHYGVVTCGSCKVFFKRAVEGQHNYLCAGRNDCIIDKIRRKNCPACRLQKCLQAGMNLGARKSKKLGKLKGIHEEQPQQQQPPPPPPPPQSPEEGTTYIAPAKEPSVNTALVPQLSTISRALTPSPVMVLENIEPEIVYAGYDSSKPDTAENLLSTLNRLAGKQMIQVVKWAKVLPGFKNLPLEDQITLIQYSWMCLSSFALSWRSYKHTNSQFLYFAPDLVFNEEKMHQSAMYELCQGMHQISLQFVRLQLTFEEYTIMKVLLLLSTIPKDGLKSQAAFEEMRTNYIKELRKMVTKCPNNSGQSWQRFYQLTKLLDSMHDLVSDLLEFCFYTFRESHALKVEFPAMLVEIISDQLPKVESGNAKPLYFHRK
Description: Displacement of [3H]aldosterone from human mineralocorticoid receptor expressed in 293 cells after 16 hrs by scintillation counting

[4] = target: Glucocorticoid receptor (Homo sapiens, UniProt P04150); test: biochemical
Chain of Glucocorticoid receptor (P04150 whole entry, looked up): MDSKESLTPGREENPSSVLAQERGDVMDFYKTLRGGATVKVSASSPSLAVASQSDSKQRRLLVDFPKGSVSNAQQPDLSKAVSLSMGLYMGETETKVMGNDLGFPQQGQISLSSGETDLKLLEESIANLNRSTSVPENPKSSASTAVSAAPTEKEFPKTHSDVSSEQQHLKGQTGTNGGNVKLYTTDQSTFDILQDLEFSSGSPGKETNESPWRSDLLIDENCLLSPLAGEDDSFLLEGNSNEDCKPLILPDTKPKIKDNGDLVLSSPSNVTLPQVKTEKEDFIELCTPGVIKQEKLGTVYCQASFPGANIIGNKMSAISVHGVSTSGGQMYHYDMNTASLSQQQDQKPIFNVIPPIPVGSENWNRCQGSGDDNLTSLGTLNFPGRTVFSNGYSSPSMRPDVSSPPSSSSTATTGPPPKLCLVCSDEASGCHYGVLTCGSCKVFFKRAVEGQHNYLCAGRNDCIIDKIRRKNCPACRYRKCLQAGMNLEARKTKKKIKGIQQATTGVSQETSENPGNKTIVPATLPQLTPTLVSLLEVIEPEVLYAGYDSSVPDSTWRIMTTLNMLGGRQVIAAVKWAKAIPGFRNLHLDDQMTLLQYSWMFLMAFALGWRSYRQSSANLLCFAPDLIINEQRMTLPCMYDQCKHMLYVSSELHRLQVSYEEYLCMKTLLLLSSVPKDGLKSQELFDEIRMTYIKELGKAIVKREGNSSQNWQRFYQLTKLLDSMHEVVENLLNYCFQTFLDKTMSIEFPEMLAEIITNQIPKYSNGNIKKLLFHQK
Description: Displacement of [3H]-Dexamethasone from glucocorticoid receptor (unknown origin) expressed in 293 cells after 16 hrs by scintillation counting

[5] = target: T3, Mineralocorticoid receptor
Description: Antagonist activity at human mineralocorticoid receptor expressed in COS1 cells after 1 day by luciferase reporter gene assay

[6] = Lipophilicity, log D of the compound at pH 7.4 by HPLC analysis; format: physicochemical; settings: buffer
[7] = Metabolic stability in rat hepatic microsomes at 1 umol/L pre-incubated fro 5 mins at 37 degC before addition of NADPH-generating system by UV detection based HPLC method; format: ADME; settings: liver microsomes, read-out: CLH
[8] = test system: Rattus norvegicus; test: Toxicity in DOCA-salt hypertensive Wistar rat model assessed as change in seminal vesicle weight at 100 mg/kg, po qd for 18 days measured 24 hrs post 7th and 14th last dose […]; format: organism-based; set-up: dose 100 mg/kg, route oral; settings: in vivo
[9] = test system: Rattus norvegicus; test: Toxicity in DOCA-salt hypertensive Wistar rat model assessed as change in heart rate at 100 mg/kg, po qd for 18 days measured 24 hrs post 7th and 14th last dose by tail-cuff method; format: organism-based; set-up: dose 100 mg/kg, route oral; settings: in vivo

SMILES	IC50 [1] [nM]	IC50 [2] [nM]	IC50 [3] [nM]	IC50 [4] [nM]	IC50 [5] [nM]	logD [6]	microsomal CLint at 1 µM [7] [µL/min/mg]	Activity [8]	Activity [9]
Cc1cc(C2=C(c3ccc(F)cc3)C(=O)NC2C)cc2c1OCC(=O)N2 (stereo unspecified)	> 10000	> 10000							
Cc1[nH]nc(-c2ccc3c(c2)NC(=O)CO3)c1-c1ccc(F)cc1	1600	> 10000	3700	> 10000					
Cc1onc(-c2ccc3c(c2)NC(=O)CO3)c1-c1ccc(F)cc1	> 10000	> 10000	710	> 10000	1400				
Cn1ncc(-c2ccc3c(c2)NC(=O)CO3)c1-c1ccc(F)cc1	> 10000	> 10000	290	> 10000	170				
Cc1nn(C)c(-c2ccc(F)cc2)c1-c1ccc2c(c1)NC(=O)CO2	9800	> 10000	110	3200	160	2.51			
Cc1nn(C)c(-c2ccc(F)cc2F)c1-c1ccc2c(c1)NC(=O)CO2	9300	> 10000	190	2300	600				
Cc1cc(-c2c(C)nn(C)c2-c2ccc(F)cc2)cc2c1OCC(=O)N2	> 10000	> 10000	150	2500	350				
CCn1nc(C)c(-c2ccc3c(c2)NC(=O)CO3)c1-c1ccc(F)cc1	> 10000	> 10000	510	5600	950				
CCCn1nc(C)c(-c2ccc3c(c2)NC(=O)CO3)c1-c1ccc(F)cc1	5700	> 10000	81	1600	180				
Cc1nn(Cc2ccccc2)c(-c2ccc(F)cc2)c1-c1ccc2c(c1)NC(=O)CO2	2000	5600	100	630	64				
Cc1nn(-c2ccccc2)c(-c2ccc(F)cc2)c1-c1ccc2c(c1)NC(=O)CO2			> 10000						
Cc1nn(CCCO)c(-c2ccc(F)cc2)c1-c1ccc2c(c1)NC(=O)CO2	> 10000	> 10000	440	> 10000	680	1.99			
Cc1nn(CCCCO)c(-c2ccc(F)cc2)c1-c1ccc2c(c1)NC(=O)CO2	> 10000	> 10000	75	5400	130	2.16			
Cc1nn(Cc2ccccn2)c(-c2ccc(F)cc2)c1-c1ccc2c(c1)NC(=O)CO2	> 10000	> 10000	2800	> 10000	990	2.45			
Cc1nn(Cc2cccnc2)c(-c2ccc(F)cc2)c1-c1ccc2c(c1)NC(=O)CO2	> 10000	> 10000	36	1700	36	2.22	> 200		
Cc1nn(Cc2ccncc2)c(-c2ccc(F)cc2)c1-c1ccc2c(c1)NC(=O)CO2	> 10000	> 10000	520	> 10000	430	2.2			
CCCCn1nc(C)c(-c2ccc3c(c2)NC(=O)CO3)c1-c1ccc(F)cc1	4000	3600	22	1400	45				
Cc1nn(CC(C)C)c(-c2ccc(F)cc2)c1-c1ccc2c(c1)NC(=O)CO2	4300	3700	60	390	49				
Cc1nn(CCCC(F)(F)F)c(-c2ccc(F)cc2)c1-c1ccc2c(c1)NC(=O)CO2	6800	> 10000	8.4	1100	33				
CC(=O)NCCn1nc(C)c(-c2ccc3c(c2)NC(=O)CO3)c1-c1ccc(F)cc1			> 10000						
Cc1nn(CCNS(C)(=O)=O)c(-c2ccc(F)cc2)c1-c1ccc2c(c1)NC(=O)CO2	> 10000	> 10000	250	> 10000	2000	1.7			
Cc1nn(CCC#N)c(-c2ccc(F)cc2)c1-c1ccc2c(c1)NC(=O)CO2	5700	> 10000	530	4600	490	1.89			
Cc1nn(CC(F)(F)CCO)c(-c2ccc(F)cc2)c1-c1ccc2c(c1)NC(=O)CO2	> 10000	> 10000	38	1300	540	2.11			
Cc1nn(CCC(C)(F)F)c(-c2ccc(F)cc2)c1-c1ccc2c(c1)NC(=O)CO2	4000	9200	10	370	18				
Cc1nn(CCC(F)(F)CO)c(-c2ccc(F)cc2)c1-c1ccc2c(c1)NC(=O)CO2	> 10000	> 10000	95	2500	180	2.34			
CC(=O)S[C@@H]1CC2=CC(=O)CC[C@]2(C)[C@H]2CC[C@@]3(C)[C@@H](CC[C@@]34CCC(=O)O4)[C@H]12 [SPIRONOLACTONE]								Toxic	Non-toxic
